Measured values: patent US10087178B2, “Substituted spiropyrido[1,2-a]pyrazine derivative and medicinal use thereof as HIV integrase inhibitor” (priority 2012, dated 2018)
Structures can show the parent of a compound that is named as a salt.

System: HIV-1 NL4-3 strain
Assay: Evaluation of antiviral activity: acute infection system of MT-4 cell with HIV-1 NL4-3 strain
Format: cell-based
Details: Human immunodeficiency virus 1, NL43, MT4, 120 h, MT-4 cells infected with HIV-1 NL4-3 strain (MOI 0.05), cultured 5 days, Cell Titer-Glo; read-out: antiviral activity (EC50)

Compound	EC50 [nM]
CC(C)N1C[C@]2(C[C@@H](OS(C)(=O)=O)C2)n2cc(C(=O)NCc3ccc(F)cc3F)c(=O)c(O)c2C1=O [Example S34, 7′-(2,4-difluorobenzylcarbamoyl)-9′-hydroxy-2′-isopropyl-1′,8′-dioxo-1′,2′,3′,8′-tetrahydrospiro[cyclobutane-1,4′-pyrido[1,2-a]pyrazine]- trans-3-yl methanesulfonate hydrochloride]	5.7
CC(C)N1C[C@]2(C[C@H](OS(C)(=O)=O)C2)n2cc(C(=O)NCc3ccc(F)cc3F)c(=O)c(O)c2C1=O [Example S35, 7′-(2,4-difluorobenzylcarbamoyl)-9′-hydroxy-2′-isopropyl-1′,8′-dioxo-1′,2′,3′,8′-tetrahydrospiro[cyclobutane-1,4′-pyrido[1,2-a]pyrazine]- cis-3-yl methanesulfonate hydrochloride]	7.3
CN1C[C@]2(C[C@@H](CO)C2)n2cc(C(=O)NCc3cccc(Cl)c3F)c(=O)c(O)c2C1=O [Example S36, N-(3-chloro-2-fluorobenzyl)-9′-hydroxy-trans-3-(hydroxymethyl)-2′-methyl-1′,8′-dioxo-1′,2′,3′,8′-tetrahydrospiro[cyclobutane-1,4′-pyrido[1,2-a]pyrazine]-7′-carboxamide]	15
CN1C[C@]2(C[C@H](CO)C2)n2cc(C(=O)NCc3cccc(Cl)c3F)c(=O)c(O)c2C1=O [Example S37, N-(3-chloro-2-fluorobenzyl)-9′-hydroxy-cis-3-(hydroxymethyl)-2′-methyl-1′,8′-dioxo-1′,2′,3′,8′-tetrahydrospiro[cyclobutane-1,4′-pyrido[1,2-a]pyrazine]-7′-carboxamide hydrochloride]	3.8
CC(=O)NC[C@H]1C[C@]2(CN(C(C)C)C(=O)c3c(O)c(=O)c(C(=O)NCc4ccc(F)cc4F)cn32)C1 [Example S38, cis-3-(acetamidomethyl)-N-(2,4-difluorobenzyl)-9′-hydroxy-2′-isopropyl-1′,8′-dioxo-1′,2′,3′,8′-tetrahydrospiro[cyclobutane-1,4′-pyrido[1,2-a]pyrazine]-7′-carboxamide hydrochloride]	50
CCOC[C@H]1C[C@]2(CN(C)C(=O)c3c(O)c(=O)c(C(=O)NCc4cccc(Cl)c4F)cn32)C1 [Example S39, N-(3-chloro-2-fluorobenzyl)- cis-3-(ethoxymethyl)-9′-hydroxy-2′-methyl-1′,8′-dioxo-1′,2′,3′,8′-tetrahydrospiro[cyclobutane-1,4′-pyrido[1,2-a]pyrazine]-7′-carboxamide hydrochloride]	3.5
CC(C)O[C@H]1C[C@@]2(CN(C)C(=O)c3c(O)c(=O)c(C(=O)NCc4cccc(Cl)c4F)cn32)C1 [Example S40, N-(3-chloro-2-fluorobenzyl)-9′-hydroxy-trans-3-isopropoxy-2′-methyl-1′-8′-dioxo-1′,2′,3′,8′-tetrahydrospiro[cyclobutane-1,4′-pyrido[1,2-a]pyrazine]-7′-carboxamide hydrochloride]	2.3
CC(C)O[C@H]1C[C@]2(CN(C)C(=O)c3c(O)c(=O)c(C(=O)NCc4cccc(Cl)c4F)cn32)C1 [Example S41, N-(3-chloro-2-fluorobenzyl)-9′-hydroxy-cis-3-isopropoxy-2′-methyl-1′,8′-dioxo-1′,2′,3′,8′-tetrahydrospiro[cyclobutane-1,4′-pyrido[1,2-a]pyrazine]-7′-carboxamide hydrochloride]	3.5
CCCO[C@H]1C[C@@]2(CN(C)C(=O)c3c(O)c(=O)c(C(=O)NCc4cccc(Cl)c4F)cn32)C1 [Example S42, N-(3-chloro-2-fluorobenzyl)-9′-hydroxy-2′-methyl-1′,8′-dioxo-trans-3-propoxy-1′,2′,3′,8′-tetrahydrospiro[cyclobutane-1,4′-pyrido[1,2-a]pyrazine]-7′-carboxamide hydrochloride]	4.3
CCCO[C@H]1C[C@]2(CN(C)C(=O)c3c(O)c(=O)c(C(=O)NCc4cccc(Cl)c4F)cn32)C1 [Example S43, N-(3-chloro-2-fluorobenzyl)-9′-hydroxy-2′-methyl-1′-8′-dioxo-cis-3-propoxy-1′,2′,3′,8′-tetrahydrospiro[cyclobutane-1,4′-pyrido[1,2-a]pyrazine]-7′-carboxamide hydrochloride]	4.7
CCN1C[C@]2(C[C@@H](CO)C2)n2cc(C(=O)NCc3cccc(Cl)c3F)c(=O)c(O)c2C1=O [Example S44, N-(3-chloro-2-fluorobenzyl)-2′-ethyl-9′-hydroxy-trans-3-(hydroxymethyl)-1′,8′-dioxo-1′,2′,3′,8′-tetrahydrospiro[cyclobutane-1,4′-pyrido[1,2-a]pyrazine]-7′-carboxamide hydrochloride]	11
CCN1C[C@]2(C[C@@H](COC)C2)n2cc(C(=O)NCc3cccc(Cl)c3F)c(=O)c(O)c2C1=O [Example S45, N-(3-chloro-2-fluorobenzyl)-2′-ethyl-9′-hydroxy-trans-3-(methoxymethyl)-1′,8′-dioxo-1′,2′,3′,8′-tetrahydrospiro[cyclobutane-1,4′-pyrido[1,2-a]pyrazine]-7′-carboxamide hydrochloride]	3.9
CCN1C[C@]2(C[C@H](CO)C2)n2cc(C(=O)NCc3cccc(Cl)c3F)c(=O)c(O)c2C1=O [Example S46, N-(3-chloro-2-fluorobenzyl)-2′-ethyl-9′-hydroxy-cis-3-(hydroxymethyl)-1′,8′-dioxo-1′,2′,3′,8′-tetrahydrospiro[cyclobutane-1,4′-pyrido[1,2-a]pyrazine]-7′-carboxamide hydrochloride]	4.4
CCN1C[C@]2(C[C@H](COC)C2)n2cc(C(=O)NCc3cccc(Cl)c3F)c(=O)c(O)c2C1=O [Example S47, N-(3-chloro-2-fluorobenzyl)-2′-ethyl-9′-hydroxy-cis-3-(methoxymethyl)-1′,8′-dioxo-1′,2′,3′,8′-tetrahydrospiro[cyclobutane-1,4′-pyrido[1,2-a]pyrazine]-7′-carboxamide hydrochloride]	3.5
CCOC[C@H]1C[C@]2(CN(CC)C(=O)c3c(O)c(=O)c(C(=O)NCc4cccc(Cl)c4F)cn32)C1 [Example S48, N-(3-chloro-2-fluorobenzyl)- cis-3-(ethoxymethyl)-2′-ethyl-9′-hydroxy-1′,8′-dioxo-1′,2′,3′,8′-tetrahydrospiro[cyclobutane-1,4′-pyrido[1,2-a]pyrazine]-7′-carboxamide hydrochloride]	4.3
COc1ccc(CNC(=O)c2cn3c(c(O)c2=O)C(=O)N(C)C[C@]32C[C@@H](CO)C2)c(F)c1Cl [Example S49]	65
COc1ccc(CNC(=O)c2cn3c(c(O)c2=O)C(=O)N(C)C[C@]32C[C@H](CO)C2)c(F)c1Cl [Example S50, N-(3-chloro-2-fluoro-4-methoxybenzyl)-9′-hydroxy- cis-3-(hydroxymethyl)-2′-methyl-1′,8′-dioxo-1′,2′,3′,8′-tetrahydrospiro[cyclobutane-1,4′-pyrido[1,2-a]pyrazine]-7′-carboxamide]	37
CCO[C@H]1C[C@]2(CN(C)C(=O)c3c(O)c(=O)c(C(=O)NCc4ccc(F)cc4F)cn32)C1 [Example S51, N-(2,4-difluorobenzyl)-cis-3-ethoxy-9′-hydroxy-2′-methyl-1′,8′-dioxo-1′,2′,3′,8′-tetrahydrospiro[cyclobutane-1,4′-pyrido[1,2-a]pyrazine]-7′-carboxamide hydrochloride]	2.4
